Assays:
A. baumannii BAA-125 = assay: MIC in LB Broth; type: cell-based; conditions: Acinetobacter baumannii, BAA125, 16 hours at 37° C. in LB Broth, OD600
Experimental: (§1) The minimum inhibitory concentration is defined as the lowest concentration of antibiotic at which no visible growth was detected after 16 hours at 37° C. Overnight cultures were diluted 1:150 in LB Broth and added to a 96-well plate. Antibiotics were serially diluted 1:2 and added to columns of the 96-well plate and grown at 37° C. with continuous shaking. Cell growth was measured by optical density (OD600). MIC assays were performed in either BioTek Synergy HT (Winooski, VT) or Tecan InfiniteM200 Pro (Männedorf, CH) microplate readers.

E. coli MG1655 = assay: MIC in LB Broth; type: cell-based; conditions: Escherichia coli, 16 hours at 37° C. in LB Broth, OD600
Experimental: as §1

E. coli NCM-3722 = assay: MIC in LB Broth; type: cell-based; conditions: Escherichia coli, NCM3722, 16 hours at 37° C. in LB Broth, OD600
Experimental: as §1

E. coli lptD4213 = assay: MIC in LB Broth; type: cell-based; conditions: Escherichia coli, LPTD4213, 16 h
Experimental: as §1

[1] = system: K. pneumoniae ATCC 438165; assay: MIC in LB Broth; type: cell-based; conditions: Klebsiella pneumoniae, ATCC438165, 16 hours at 37° C. in LB Broth, OD600
Experimental: as §1

P. aeruginosa ATTC 27853 = assay: MIC in LB Broth; type: cell-based; conditions: Pseudomonas aeruginosa, ATTC27853, 16 hours at 37° C. in LB Broth, OD600
Experimental: as §1

P. aeruginosa PA14 [2] = assay: MIC in LB Broth; type: cell-based; conditions: Pseudomonas aeruginosa
Experimental: as §1

S. epidermidis EGM-206 = assay: MIC in LB Broth; type: cell-based; conditions: Staphylococcus epidermidis, EGM206, 16 hours at 37° C. in LB Broth, OD600
Experimental: as §1

[3] = target: T1, purified E. coli DHFR (FolA) (Escherichia coli, UniProt P0ABQ4); assay: In vitro DHFR (FolA) activity, NADPH consumption at 340 nm; type: biochemical; conditions: Hill equation fit
T1 construct: purchased Genscript (Piscataway, NJ)

[4] = Serum binding (plasma protein binding, dialysis); type: in vitro ADME; conditions: mouse plasma
Experimental: An initial t=0 sample was collected. fluorofolin was incubated with plasma for 6 hours after which dialysis was performed. After dialysis, supernatant was collected, and the amount of fluorofolin was determined by LC-MS/MS to determine the % Unbound of fluorofolin. Serum binding parameters were determined as follows: • 1. % Bound=100%−% Unbound • 2. Log K=Log (% Bound/100−% Bound) • 3. % Remaining=Area-ratio6hr/Area-ratio0hr×100% • 4. % Recovery was determined as (Area-ratiobuffer-chamber+Area-ratioplasma-chamber)/(Area-ratioTotal sample)×100 Serum binding analysis was performed by Pharmaron, Inc. (Beijing, ROC). C. elegans Maintenance and Toxicity Assay

P. aeruginosa PA14 [5] = assay: Checkerboard assay of fluorofolin and sulfamethoxazole; type: cell-based
Experimental: FIG. 2B is a Checkerboard assay of fluorofolin and sulfamethoxazole. Z-values represent fractional inhibitory concentrations (FICs). FICs were determined by dividing the MIC of each drug when used in combination by the MIC when used alone. FIC of less than or equal to 0.5 is considered a synergistic effect.
Cells were seeded in a similar manner as described above for MIC calculations. Sulfamethoxazole (Chem-Impex 00821) was diluted 1:2 down the rows of the plate, while fluorofolin was diluted 1:2 down the column of the plate. Fractional inhibitory concentrations (FICs) were calculated as [fluorofolin]/MICFluorofolin+[SMX]/MICSMX where [fluorofolin] and [SMX] are the concentrations of compounds in given well, which are dividing by the concentration of drug at the MIC for each compound. FIC values less than or equal to 0.5 are considered synergistic.

[6] = system: co-cultures of E. coli MG1655 and P. aeruginosa PA14; assay: Growth competition assay (co-culture); type: cell-based; conditions: 50 μg/mL fluorofolin, 1:1 inoculum, overnight, CFU
Experimental: FIG. 3C characterizes competition of P. aeruginosa PA14 and E. coli MG1655 in LB or TMI-supplemented LB media. PA14 and E. coli MG1655 were inoculated at a 1:1 ratio and grown overnight in the presence or absence of 50 μg/mL fluorofolin in each media condition. The following day CFU were counted on LB-agar or Pseudomonas selection agar plates to determine CFU/mL of each species. Data represent mean±SD of triplicate biological and triplicate technical replicates. P values were calculated using unpaired t-test using Prism 9 (P value≤0.001)
Overnight cultures of P. aeruginosa PA14 or E. coli MG1655 were diluted 1:150 into LB Broth in the presence of DMSO or 50 μg/mL fluorofolin with or without TMI supplementation and grown for 16 hours at 37° C. Cultures of each species were grown separately as well as being mixed 1:1. Cultures were plated onto LB Agar or Pseudomonas Selection Agar (Sigma-Aldrich 17208) and CFU counting was carried out as described above. To control for appropriate, Pseudomonas selection, E. coli MG1655 was plated onto Pseudomonas Selection Agar and an absence of colonies was observed. The number of colonies on Pseudomonas Selection Agar plates was reported as the CFU/mL of P. aeruginosa. To calculate CFU/mL of E. coli MG1655, CFU/mL were determined from LB Agar plates, and the CFU/mL of P. aeruginosa were subtracted from these values.

In the case of `Nc1nc(N)c2c(ccc3c2ccn3Cc2ccnc(F)c2)n1` [fluorofolin], the MIC (A. baumannii BAA-125) is reported as 31.2 µg/mL, the MIC (E. coli MG1655) is reported as 0.625 µg/mL and the MIC (E. coli NCM-3722) is reported as 0.312 µg/mL. For the same molecule, the MIC (E. coli lptD4213) was 0.02 µg/mL, the MIC [1] was 6.25 µg/mL and the MIC (P. aeruginosa ATTC 27853) was 25 µg/mL. For the same molecule, the MIC (P. aeruginosa PA14 [2]; P. aeruginosa PA14, compound alone) was 3.1 µg/mL, the MIC (P. aeruginosa PA14 [2]; P. aeruginosa PA14, 16 hours at 37° C. in LB Broth, OD600) was 3.12 µg/mL and the MIC (S. epidermidis EGM-206) was 0.312 µg/mL. The IC50 [3] was 2.5 ± 1.1 nM, the recovery at 6 h, 1 μM [4] was 91.9% and the MIC (P. aeruginosa PA14 [5]; Pseudomonas aeruginosa, PA14, SMX 156 μg/mL, read-out: MIC of fluorofolin in the presence of SMX) was 0.4 µg/mL. For the same molecule, the “synergy (FIC, checkerboard)” value (P. aeruginosa PA14 [5]; combination of fluorofolin and sulfamethoxazole (SMX), PA14) was “significant synergy”, the “effect on co-culture, absence of TMI supplementation” value ([6]; LB) was “effectively killed both E. coli and P. aeruginosa” and the “effect on co-culture, presence of TMI supplementation” value ([6]; TMI-supplemented LB) was “selectively inhibited the growth of P. aeruginosa but not E. coli”.
